In PubChem BioAssay (NCI):
Several values for one entry are separate records, joined by “and”; a condition that tells them apart may be missing. Identical values can stand only once.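 Briefly, cells in 96-well plates were exposed to five compound concentrations for 48 h, and endpoints were estimated by linear interpolation. GI50 = concentration required for 50% inhibition of growth. TGI: total growth inhibition.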

How the values were obtained:
Assay in all cases: NCI anticancer screen, dose series, 48 h
[1] = system: 786-0 renal
[2] = system: HCC-2998 colon
[3] = system: K-562 leukemia
[4] = system: KM12 colon
[5] = system: M14 melanoma
[6] = system: MOLT-4 leukemia
[7] = system: OVCAR-8 ovarian
[8] = system: SF-268 CNS
[9] = system: SW-620 colon
[10] = system: UACC-62 melanoma

Structure (SMILES) | GI50 [1] | TGI [1] | GI50 [2] | TGI [2] | GI50 [3] | TGI [3] | GI50 [4] | TGI [4] | GI50 [5] | GI50 [6] | TGI [6] | GI50 [7] | TGI [7] | GI50 [8] | TGI [8] | GI50 [9] | TGI [9] | GI50 [10] | TGI [5] | TGI [10]
Cn1c(=O)c(-c2c(Cl)cccc2Cl)cc2cnc(Nc3ccc(N4CCOCC4)cc3)nc21 | < 0.01 µM | 0.519 µM | 0.0431 µM | 0.209 µM | < 0.01 µM | 0.0538 µM | 1.38 µM | 5.09 µM | < 0.01 µM | < 0.0476 µM | 0.804 µM | 1.09 µM | > 100 µM | 0.391 µM | > 27.9 µM | 0.202 µM | > 100 µM | < 0.0131 µM | – | –
CCCNc1ncnc2c1cnn2C | – | > 100 µM | – | > 100 µM | – | > 100 µM | – | > 100 µM | – | – | > 100 µM | – | > 100 µM | – | > 100 µM | – | > 100 µM | – | > 100 µM | > 100 µM
Cc1c(N)nc(C2CC(=O)N2CC(N)C(N)=O)nc1C(=O)NC(C(=O)NC(C)C(O)C(C)C(=O)NC(C(=O)NCCc1nc(-c2nc(C(=O)NCCNCC(C)O)cs2)cs1)C(C)O)C(OC1OC(CO)C(O)C(O)C1OC1OC(CO)C(O)C(OC(N)=O)C1O)c1cnc[nH]1 (configuration not stated) | 2.3 µM | 50 µM and 36.8 µM | – | > 100 µM | 35.9 µM | 50 µM and > 100 µM | > 50 µM | > 100 µM | 7.91 µM | 4.23 µM | 50 µM and 6.66 µM | 6.97 µM | 50 µM and > 100 µM | 1.69 µM | 32.6 µM and > 23.2 µM | > 50 µM | > 50 µM | 0.756 µM | 50 µM and 23.8 µM | 6.43 µM and 7.31 µM
CCOC(=O)/C(=C/c1ccc[nH]1)P(=O)(OCC)OCC | – | > 100 µM | – | > 100 µM | – | > 100 µM | – | > 100 µM | – | – | > 100 µM | – | > 100 µM | – | > 100 µM | – | > 100 µM | – | > 100 µM | > 100 µM
CC(=O)OCC1OC(OC(C)=O)C(NC#N)C(OC(C)=O)C1OC(C)=O (configuration not stated) | – | > 100 µM | – | > 100 µM | – | > 100 µM | – | > 100 µM | – | – | > 100 µM | – | > 100 µM | – | > 100 µM | – | > 100 µM | – | > 100 µM | > 100 µM
COc1cc([C@H]2c3cc(O)c(OC)cc3C[C@]3(O)[C@@H]2CO[C@@H]3O)ccc1O | – | > 100 µM | – | > 100 µM | – | > 100 µM | – | > 100 µM | – | – | > 100 µM | – | > 100 µM | – | > 100 µM | – | > 100 µM | – | > 100 µM | > 100 µM
Cc1cccc2c1Oc1ncccc1C2NC(=O)CN(C)C (configuration not stated) | – | > 10 µM | – | > 10 µM | – | > 10 µM | – | > 10 µM | – | – | > 10 µM | – | > 10 µM | – | > 10 µM | – | > 10 µM | – | > 10 µM | > 10 µM
CCOC(=O)C1=C(O)c2c(OC)ccc(OC)c2C(=O)C1=O | – | > 100 µM | – | > 100 µM | – | > 100 µM | – | > 100 µM | – | – | > 100 µM | – | > 100 µM | – | > 100 µM | – | > 100 µM | – | > 100 µM | > 100 µM
